This passage reports IC50 results from US20260226065A1, “SUBSTITUTED BENZENE COMPOUND” (DAIICHI SANKYO COMPANY, LIMITED, priority 2023, published 2026).

Structures are written as SMILES.

The assay deals with T1, NLRP3 inflammasome (Homo sapiens, UniProt Q96P20).
T1 construct: endogenous in cells; host or cells: THP-1 (human monocyte-derived), PMA-differentiated, Nigericin-stimulated
T1 sequence (Q96P20 whole entry): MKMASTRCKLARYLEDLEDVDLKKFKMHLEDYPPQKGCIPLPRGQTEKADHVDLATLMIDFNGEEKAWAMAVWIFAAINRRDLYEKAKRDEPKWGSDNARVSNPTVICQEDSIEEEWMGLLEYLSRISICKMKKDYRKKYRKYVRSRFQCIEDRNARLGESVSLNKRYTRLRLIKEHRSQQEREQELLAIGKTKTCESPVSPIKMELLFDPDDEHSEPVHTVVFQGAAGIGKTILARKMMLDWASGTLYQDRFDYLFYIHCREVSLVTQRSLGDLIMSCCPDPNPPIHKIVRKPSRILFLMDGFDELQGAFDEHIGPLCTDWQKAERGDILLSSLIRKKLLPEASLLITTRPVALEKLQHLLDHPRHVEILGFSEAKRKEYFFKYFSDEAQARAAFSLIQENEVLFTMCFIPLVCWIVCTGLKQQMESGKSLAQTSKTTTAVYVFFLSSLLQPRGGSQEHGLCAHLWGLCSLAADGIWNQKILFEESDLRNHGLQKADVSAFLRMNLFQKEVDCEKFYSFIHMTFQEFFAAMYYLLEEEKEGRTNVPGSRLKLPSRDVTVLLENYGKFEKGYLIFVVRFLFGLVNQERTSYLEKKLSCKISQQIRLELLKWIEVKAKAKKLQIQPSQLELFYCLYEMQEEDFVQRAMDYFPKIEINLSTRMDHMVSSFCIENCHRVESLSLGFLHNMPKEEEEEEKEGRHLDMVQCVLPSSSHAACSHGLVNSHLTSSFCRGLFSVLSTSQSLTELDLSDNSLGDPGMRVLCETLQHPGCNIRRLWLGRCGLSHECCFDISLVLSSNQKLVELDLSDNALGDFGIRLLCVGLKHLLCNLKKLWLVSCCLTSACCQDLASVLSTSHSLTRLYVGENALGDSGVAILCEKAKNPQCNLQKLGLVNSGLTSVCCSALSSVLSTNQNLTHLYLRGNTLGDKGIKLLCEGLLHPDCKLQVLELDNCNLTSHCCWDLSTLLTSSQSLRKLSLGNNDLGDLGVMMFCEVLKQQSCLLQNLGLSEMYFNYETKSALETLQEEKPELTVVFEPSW
Briefly: In vitro IL-1β production test (PMA-differentiated THP-1 cells, Nigericin stimulation, AlphaLISA). Type of assay: cell-based. The following applies: inhibition of IL-1β production; THP-1 cells differentiated with 200 nM PMA; 0.015 mM Nigericin; 2 hours. The method, boiled down:
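THP-1 cells were differentiated one day with 200 nM PMA, then given serum-free medium with 0.015 mM nigericin plus compound for 2 h. Supernatant IL-1β was measured by AlphaLISA, with nigericin alone as 0% and unstimulated as 100% inhibition. IC50 came from logistic sigmoid fitting.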
One may read the IC50 as the concentration needed to halve the response being measured. For `Cc1cc(C(F)(F)F)cc(O)c1-c1cc2cnn(C3CCCN(C)C3)c2nn1` (racemic) [Example 31, 3-methyl-2-[1-(1-methylpiperidin-3-yl)-1H-pyrazolo[3,4-c]pyridazin-5-yl]-5-(trifluoromethyl)phenol], inhibition was half-maximal at 413 nM (IC50).

Consider `CCCN1CCC[C@@H](N2CCc3cc(-c4c(C)cc(C(F)(F)F)cc4O)nnc32)C1` [Example 14, 3-methyl-2-{7-[(3R)-1-propylpiperidin-3-yl]-6,7-dihydro-5H-pyrrolo[2,3-c]pyridazin-3-yl}-5-(trifluoromethyl)phenol], for which the IC50 was 7.87 nM.

In turn, `Cc1cc(C(F)(F)F)cc(O)c1-c1cc2c(nn1)N([C@@H]1CCCN(C)C1)CCC2` [Example 36, 3-methyl-2-{8-[(3R)-1-methylpiperidin-3-yl]-5,6,7,8-tetrahydropyrido[2,3-c]pyridazin-3-yl}-5-(trifluoromethyl)phenol] had an IC50 of 42.1 nM.

For `CCN1CCC[C@@H](N2CCc3cc(-c4c(C)cc(C(F)(F)F)cc4O)nnc32)C1` [Example 11, 2-{7-[(3R)-1-ethylpiperidin-3-yl]-6,7-dihydro-5H-pyrrolo[2,3-c]pyridazin-3-yl}-3-methyl-5-(trifluoromethyl)phenol], the midpoint of inhibition, the IC50, lay at 7.32 nM.

With `COc1cn([C@H]2C[C@@](C)(O)C2)c2nnc(-c3c(C)cc(OC(F)F)cc3O)cc12` [Example 72, 5-(difluoromethoxy)-2-{7-[(1s,3s)-3-hydroxy-3-methylcyclobutyl]-5-methoxy-7H-pyrrolo[2,3-c]pyridazin-3-yl}-3-methylphenol], half-maximal inhibition (IC50) required 53.1 nM.

Compound `Cc1cc(C(F)(F)F)cc(O)c1-c1cc2c3c(n([C@H]4C[C@@](C)(O)C4)c2nn1)CCO3` [Example 83, 2-{8-[(1s,3s)-3-hydroxy-3-methylcyclobutyl]-7,8-dihydro-6H-furo[2′,3′:4,5]pyrrolo[2,3-c]pyridazin-3-yl}-3-methyl-5-(trifluoromethyl)phenol] showed an IC50 of 9.16 nM.

`Cc1cc(C(F)(F)F)cc(O)c1-c1cc2c(Cl)cn([C@H]3C[C@@](C)(O)C3)c2nn1` [Example 6, 2-{5-chloro-7-[(1s,3s)-3-hydroxy-3-methylcyclobutyl]-7H-pyrrolo[2,3-c]pyridazin-3-yl}-3-methyl-5-(trifluoromethyl)phenol] had an IC50 of 26 nM.

With `Cc1cc(C(F)(F)F)cc(O)c1-c1cc2c(C3CC3)cn([C@H]3C[C@@](C)(O)C3)c2nn1` [Example 46, 2-[5-cyclopropyl-7-[(1s,3s)-3-hydroxy-3-methylcyclobutyl]-7H-pyrrolo[2,3-c]pyridazin-3-yl]-3-methyl-5-(trifluoromethyl)phenol], half-maximal inhibition (IC50) was put at 91.4 nM.

Turning to `CCN1C[C@H](F)C[C@@H](N2CCc3cc(-c4c(C)cc(C(F)(F)F)cc4O)nnc32)C1` [Example 66, 2-{7-[(3R,5R)-1-ethyl-5-fluoropiperidin-3-yl]-6,7-dihydro-5H-pyrrolo[2,3-c]pyridazin-3-yl}-3-methyl-5-(trifluoromethyl)phenol], inhibition was half-maximal at 16.4 nM (IC50).

On to `CCN1CCC[C@@H](n2cc(C#N)c3cc(-c4c(C)cc(C(F)(F)F)cc4O)nnc32)C1` [Example 64, 7-[(3R)-1-ethylpiperidin-3-yl]-3-[2-hydroxy-6-methyl-4-(trifluoromethyl)phenyl]-7H-pyrrolo[2,3-c]pyridazine-5-carbonitrile], for which the IC50 stood at 9.6 nM.

As to `Cc1cc(C(F)(F)F)cc(O)c1-c1cc2c(nn1)N([C@@H]1C[C@@H](F)CN(C)C1)CC2` [Example 60, 2-{7-[(3R,5R)-5-fluoro-1-methylpiperidin-3-yl]-6,7-dihydro-5H-pyrrolo[2,3-c]pyridazin-3-yl}-3-methyl-5-(trifluoromethyl)phenol], the 50% inhibitory concentration (IC50) stood at 74.8 nM.

For `Cc1cc(C(F)(F)F)cc(O)c1-c1cc2c(C)cn([C@@H]3CCCN(C)C3)c2nn1` [Example 56, 3-methyl-2-{5-methyl-7-[(3R)-1-methylpiperidin-3-yl]-7H-pyrrolo[2,3-c]pyridazin-3-yl}-5-(trifluoromethyl)phenol], the IC50 came out at 14.4 nM.

Compound `Cc1cc(C(F)(F)F)cc(O)c1-c1cc2ccn(C[C@H](C)O)c2nn1` [Example 89, 2-{7-[(28)-2-hydroxypropyl]-7H-pyrrolo[2,3-c]pyridazin-3-yl}-3-methyl-5-(trifluoromethyl)phenol] yielded an IC50 of 138 nM.

The compound `Cc1cc(C)c(-c2cc3c(C)cn([C@H]4C[C@@](C)(O)C4)c3nn2)c(O)c1` [Example 90, 2-{7-[(1s,3s)-3-hydroxy-3-methylcyclobutyl]-5-methyl-7H-pyrrolo[2,3-c]pyridazin-3-yl}-3,5-dimethylphenol] showed an IC50 of 56.5 nM.

Take `Cc1cc(C(F)(F)F)cc(O)c1-c1cc2c(C#N)cn([C@H]3C[C@@](C)(O)C3)c2nn1` [Example 45, 7-[(1s,3s)-3-hydroxy-3-methylcyclobutyl]-3-[2-hydroxy-6-methyl-4-(trifluoromethyl)phenyl]-7H-pyrrolo[2,3-c]pyridazine-5-carbonitrile]: the midpoint of inhibition, the IC50, lay at 8.81 nM.

In the case of `Cc1cc(C(F)(F)F)cc(O)c1-c1cc2c(nn1)N([C@@H]1CCCN(C)C1)CC2` [Example 1, 3-methyl-2-{7-[(3R)-1-methylpiperidin-3-yl]-6,7-dihydro-5H-pyrrolo[2,3-c]pyridazin-3-yl}-5-(trifluoromethyl)phenol], the IC50 was 5.27 nM.

`Cc1cc(F)cc(O)c1-c1cc2c(C)cn([C@H]3C[C@@](C)(O)C3)c2nn1` [Example 91, 5-fluoro-2-{7-[(1s,3s)-3-hydroxy-3-methylcyclobutyl]-5-methyl-7H-pyrrolo[2,3-c]pyridazin-3-yl}-3-methylphenol] registered an IC50 of 125 nM.

Regarding `COc1cn([C@H]2C[C@@](C)(O)C2)c2nnc(-c3c(C)cc(Cl)cc3O)cc12` [Example 28, 5-chloro-2-{7-[(1s,3s)-3-hydroxy-3-methylcyclobutyl]-5-methoxy-7H-pyrrolo[2,3-c]pyridazin-3-yl}-3-methylphenol], the IC50 came to 12 nM.

For the compound `Cc1cc(C(F)(F)F)cc(O)c1-c1cc2c(C)cn(C34CCCC(O)(C3)C4)c2nn1` [Example 8, 5-{3-[2-hydroxy-6-methyl-4-(trifluoromethyl)phenyl]-5-methyl-7H-pyrrolo[2,3-c]pyridazin-7-yl}bicyclo[3.1.1]heptan-1-ol], half-maximal inhibition (IC50) required 15.4 nM.

`Cc1cc(C(F)(F)F)cc(O)c1-c1cc2c(nn1)N([C@@H]1CCCN(CC3CC3)C1)CC2` [Example 61, 2-{7-[(3R)-1-(cyclopropylmethyl)piperidin-3-yl]-6,7-dihydro-5H-pyrrolo[2,3-c]pyridazin-3-yl}-3-methyl-5-(trifluoromethyl)phenol] showed an IC50 of 25.3 nM.

In turn, `COc1cn(C23CCCC(O)(C2)C3)c2nnc(-c3c(C)cc(C(F)(F)F)cc3O)cc12` [Example 24, 5-{3-[2-hydroxy-6-methyl-4-(trifluoromethyl)phenyl]-5-methoxy-7H-pyrrolo[2,3-c]pyridazin-7-yl}bicyclo[3.1.1]heptan-1-ol] gave an IC50 of 34.8 nM.

Consider `Cc1cc(C(F)(F)F)cc(O)c1-c1cc2c(C)cn(C34CCC(O)(C3)C4)c2nn1` [Example 70, 4-{3-[2-hydroxy-6-methyl-4-(trifluoromethyl)phenyl]-5-methyl-7H-pyrrolo[2,3-c]pyridazin-7-yl}bicyclo[2.1.1]hexan-1-ol], for which the IC50 was determined as 31.2 nM.

In the case of `Cc1cc(C(F)(F)F)cc(O)c1-c1cc2c(C)cn([C@@H]3CCC[C@@H](O)C3)c2nn1` [Example 54, 2-{7-[(1R,3R)-3-hydroxycyclohexyl]-5-methyl-7H-pyrrolo[2,3-c]pyridazin-3-yl}-3-methyl-5-(trifluoromethyl)phenol], inhibition was half-maximal at 84.3 nM (IC50).

`Cc1cc(C(F)(F)F)cc(O)c1-c1cc2c(nn1)N([C@H]1C[C@@](C)(O)C1)CC2C` (mixture of isomers) [Example 85, 2-{7-[(1s,3s)-3-hydroxy-3-methylcyclobutyl]-5-methyl-6,7-dihydro-5H-pyrrolo[2,3-c]pyridazin-3-yl}-3-methyl-5-(trifluoromethyl)phenol] gave a half-maximal inhibitory concentration (IC50) of 65.3 nM.

`Cc1cc(C(F)(F)F)cc(O)c1-c1cc2c(nn1)N([C@@H]1CCCN(CC(C)(C)O)C1)CC2` [Example 58, 2-{7-[(3R)-1-(2-hydroxy-2-methylpropyl)piperidin-3-yl]-6,7-dihydro-5H-pyrrolo[2,3-c]pyridazin-3-yl}-3-methyl-5-(trifluoromethyl)phenol] came in with a half-maximal inhibitory concentration (IC50) of 55.8 nM.

The compound `Cc1cc(C(F)(F)F)cc(O)c1-c1cc2c3c(n([C@H]4C[C@@](C)(O)C4)c2nn1)CCC3` [Example 12, 2-{8-[(1s,3s)-3-hydroxy-3-methylcyclobutyl]-5,6,7,8-tetrahydrocyclopenta[4,5]pyrrolo[2,3-c]pyridazin-3-yl}-3-methyl-5-(trifluoromethyl)phenol] came in with an IC50 of 25.9 nM.

Consider `Cc1cc(Cl)cc(O)c1-c1cc2c(C)cn([C@H]3C[C@@](C)(O)C3)c2nn1` [Example 9, 5-chloro-2-{7-[(1s,3s)-3-hydroxy-3-methylcyclobutyl]-5-methyl-7H-pyrrolo[2,3-c]pyridazin-3-yl}-3-methylphenol], for which the midpoint of inhibition, the IC50, lay at 13.2 nM.

`Cc1cc(C(F)(F)F)cc(O)c1-c1cc2ccn([C@@H]3CCCN(C)C3)c2nn1` [Example 2, 3-methyl-2-{7-[(3R)-1-methylpiperidin-3-yl]-7H-pyrrolo[2,3-c]pyridazin-3-yl}-5-(trifluoromethyl)phenol] showed an IC50 of 5.26 nM.
